Laboratory results published in US8143212B2 (Vicuron Pharmaceuticals Inc., priority 2002, dated 2012).
In brackets after ≈: the same amount, converted by molar mass. Several values for one entry are separate records, joined by “and”; a condition that tells them apart may be missing. Identical values can stand only once.

Columns and labels:
S pneumoniae = assay: MIC, microbiological activity (Table 3); type: cell-based; settings: L 44 S pneumoniae UC41
C albicans = assay: MIC, microbiological activity (Table 3); type: cell-based; settings: L 145 C albicans SKF2270
Staph. aureus = assay: ED50 against Staph. aureus murine septicaemias (Table 2); type: in vivo; settings: treatment once within 10 min from infection by sc route
P aeruginosas = assay: MIC, microbiological activity (Table 3); type: cell-based; settings: L 4 P aeruginosas ATCC10145
B subtilis = assay: MIC, microbiological activity (Table 3); type: cell-based; settings: L 102 B subtilis ATCC
E. faecium Van-A = assay: MIC, microbiological activity (Table 3); type: cell-based; settings: L 1666 E. faecium Van-A
E coli = assay: MIC, microbiological activity (Table 3); type: cell-based; settings: G 16440 E coli iperperm
S epidermidis = assay: MIC, microbiological activity (Table 3); type: cell-based; settings: L 147 S epidermidis
E faecalis = assay: MIC, microbiological activity (Table 3); type: cell-based
S pyogenes = assay: MIC, microbiological activity (Table 3); type: cell-based; settings: L 49 S pyogenes C203
S aureus = assay: MIC, microbiological activity (Tables 2, 3); type: cell-based
P vulgaris = assay: MIC, microbiological activity (Table 3); type: cell-based; settings: L 79 P vulgaris
S haemolyticus = assay: MIC, microbiological activity (Table 3); type: cell-based; settings: L 602 S haemolyticus clin. isolate
[1] = system: panel of gram-positive bacteria; assay: MIC by broth microdilution (NCCLS) of IsoB0 and reference compounds (Table 44); type: cell-based
Protocol: Müller Hinton broth (Difco Laboratories, Detroit, Mich., USA) adjusted with CaCl2 and MgCl2 to a final concentrations of 20 mg/L and 10 mg/L respectively.
The microorganisms used are reference standard strains from the American Type Culture Collection (ATCC, Rockville, USA), Smith Kline and French Laboratories (SKF) and the Upjohn Company (UC, Kalamazoo, Mich., USA).
(§1) MICs were determined by the broth microdilution methodology following the standard NCCLS procedure, with or without 30% bovine serum, using bacterial inocula of approximately 5×10^5 CFU/mL. Tests were read after 20-24 h incubation at 35° C.

gram positive bacteria = assay: MIC by broth microdilution (NCCLS), with or without 30% bovine serum (Table 42); type: cell-based
Protocol: (§2) Before dissolution, each sample was analyzed by HPLC and quantified.
(§3) The microorganisms used were reference strains obtained from the American Type Culture Collection (ATCC) (Rockville, Md.), SmithKline and French Laboratories (SKF), and the Upjohn Company (UC) (Kalamazoo, Mich.).
(§4) MICs were determined by the broth microdilution methodology following the standard NCCLS procedure (NCCLS Document M7-A6, Vol. 23, No. 2, “Methods for dilution antimicrobial susceptibility tests for bacteria that grow aerobically.” Approved Guideline. January 2003, which can be herein incorporated by reference in its entirety), with or without 30% adult bovine serum (BS) (PAA Laboratories GMBH, Haidmannweg Pasching Austria), using bacterial innocula at approximately 5×10^5 CFU/ml. The media employed included cation-adjusted Müller Hinton broth (Difco Laboratories, Detroit, Mich.) that was used that was adjusted with CaCl2 and MgCl2 to a final concentration of 20 mg/L and 10 mg/L, respectively. Tests were read following 20-24 hours of incubation at 35° C.

[2] = system: Escherichia coli, Proteus vulgaris, Pseudomonas aeruginosas; assay: MIC by broth microdilution (NCCLS) of IsoB0 and reference compounds (Table 44), non-gram-positive bacterial strains; type: cell-based
Protocol: as §1

gram-negative bacteria [3] = assay: MIC by broth microdilution (NCCLS) (Table 42); type: cell-based
Protocol: as §2, §3, §4

gram-negative bacteria [4] = settings: E. coli ATCC25922 ref. strain; NCCLS M100 S-12; cited from earlier work
[5] = system: Candida albicans SKF 2270; assay: MIC by broth microdilution (NCCLS) (Tables 42, 44); type: cell-based
[6] = E. faecalis ATCC29212 ref. strain
[7] = Enterococcus faecalis ATCC 7080
[8] = S. aureus ATCC 29213 ref. strain
[9] = Staphylococcus aureus Smith ATCC 19636
[10] = Pseudomonas aeruginosas ATCC 10145

CN[C@H]1C(=O)N[C@@H]2Cc3ccc(cc3)Oc3cc4cc(c3O)Oc3ccc(cc3Cl)[C@@H](O)[C@@H]3NC(=O)[C@H](NC(=O)[C@@H]4NC(=O)[C@@H](NC2=O)c2cc(cc(O)c2Cl)Oc2cc1ccc2O)c1ccc(O)c(c1)-c1c(O[C@H]2O[C@H](CO)[C@@H](O)[C@H](O)[C@@H]2O)cc(O)cc1[C@@H](C(=O)NCCCN(C)C)NC3=O [MAG]
MIC (S pneumoniae): 1 µg/mL and 0.5 µg/mL
MIC (C albicans): >32->32->32 μg/ml
ED50 (Staph. aureus; MRSA Staph. aureus 3817): 1.6 mg/kg
ED50 (Staph. aureus; MSSA Staph. aureus Smith 819): 0.3 mg/kg
MIC (P aeruginosas): >32->32->32 μg/ml
MIC (B subtilis): 0.13-0.13 μg/ml
MIC (E. faecium Van-A): >32->32->32 μg/ml
MIC (E coli): 8 µg/mL and 16 µg/mL
MIC (S epidermidis): 0.25 µg/mL and 0.13 µg/mL
MIC (E faecalis; L 149 E faecalis): 0.25 µg/mL and 0.5 µg/mL
MIC (E faecalis; L 562 E faecalis clin. isolate): 32->32->32 μg/ml
MIC (S pyogenes): 0.5 µg/mL and 0.25 µg/mL
MIC (S aureus; 3797 S aureus clin. Isolate GISA): 0.5-0.5 μg/ml
MIC (S aureus; 3817 S aureus clin. Isolate): 0.5 µg/mL (≈ 0.343 µM)
MIC (S aureus; L 613 S aureus clin. isolate): 1 µg/mL and 0.5 µg/mL
MIC (S aureus; L 819 S aureus Smith): 0.5 µg/mL and 0.25 µg/mL
MIC (S aureus; L 819 S aureus Smith 50% serum): 1-1-1 μg/ml
MIC (S aureus; MRSA Staph. aureus 3817): 0.5 µg/mL (≈ 0.343 µM)
MIC (S aureus; MSSA Staph. aureus Smith 819): 0.5 µg/mL (≈ 0.343 µM)
MIC (P vulgaris): >32->32->32 μg/ml
MIC (S haemolyticus): >32-32 μg/ml

Gentamycin [reference compound]
MIC ([1]; Bacillus subtilis ATCC 6633): 0.25 µg/mL
MIC [1, 6]: 32 µg/mL
MIC [1, 7]: 8 µg/mL
MIC [1, 8]: 8 µg/mL
MIC ([1]; S. aureus Smith + 30% BS): ≦0.125 mg/L
MIC ([1]; S. epidermidis ATCC 12228): ≦0.125 mg/L
MIC ([1]; S. pneumoniae Felton UC41): 8 µg/mL
MIC [1, 9]: 0.5 µg/mL
MIC ([1]; Streptococcus pyogenes SKF13400): 4 µg/mL
MIC (gram positive bacteria; Bacillus subtilis ATCC 6633): 0.25 µg/mL
MIC (gram positive bacteria; [6]): 32 µg/mL
MIC (gram positive bacteria; [7]): 8 µg/mL
MIC (gram positive bacteria; [8]): 8 µg/mL
MIC (gram positive bacteria; S. aureus Smith + 30% BS): ≦0.125 mg/L
MIC (gram positive bacteria; S. epidermidis ATCC 12228): ≦0.125 mg/L
MIC (gram positive bacteria; S. pneumoniae Felton UC41): 8 µg/mL
MIC (gram positive bacteria; [9]): 0.5 µg/mL
MIC (gram positive bacteria; Streptococcus pyrogenes SKF 13400): 4 µg/mL
MIC ([2]; E. coli ATCC25922 ref. strain): 1 µg/mL
MIC ([2]; Escherichia coli SKF 12140): 2 µg/mL
MIC ([2]; Proteus vulgaris ATCC 881): 2 µg/mL
MIC [2, 10]: 1 µg/mL
MIC (gram-negative bacteria [3]; E. coli ATCC25922 ref. strain): 1 µg/mL
MIC (gram-negative bacteria [3]; Escherichia coli SKF 12140): 2 µg/mL
MIC (gram-negative bacteria [3]; Proteus vulgaris ATCC 881): 2 µg/mL
MIC (gram-negative bacteria [3]; [10]): 1 µg/mL
Quality control range of MICs for reference strains (gram-negative bacteria [4]): ^3GE 0.25-1 mg/L
MIC ([5]; Candida albicans SKF 2270 (Table 42)): >128 µg/mL
MIC ([5]; Candida albicans SKF2270 (Table 44)): >128 µg/mL
